US10821100B2, “Triazolone compounds as mPGES-1 inhibitors” (Glenmark Pharmaceuticals S.A., priority 2012, dated 2020)

Target: T1, Recombinant human mPGES-1 (Homo sapiens, UniProt O14684)
T1 construct: made in house; host or cells: CHO cells (crude microsomal fractions)
T1 sequence (O14684 1-152): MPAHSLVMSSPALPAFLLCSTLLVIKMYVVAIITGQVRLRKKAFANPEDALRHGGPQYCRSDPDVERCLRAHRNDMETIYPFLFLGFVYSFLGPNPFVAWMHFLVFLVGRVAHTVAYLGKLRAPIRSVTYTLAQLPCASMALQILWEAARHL
Test: In-vitro screening of mPGES-1 inhibitors (inhibition of PGE2 formation from PGH2, HTRF detection)
Type: biochemical
Details: mPGES-1 enzyme; for inhibition at 1 µM: 1 μM test compound, read-out: Percentage inhibition at 1 μM; for inhibition at 1 µM / inhibition at 10 µM: crude microsomal fractions; for inhibition at 10 µM: 10 μM test compound, read-out: Percentage inhibition at 10 μM; for IC50: class symbols
How it was run: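 Crude CHO-expressed microsomes (40–60 μg/mL protein) preincubated 10 min with compound in 0.1 M potassium phosphate/2 mM EDTA containing 2.5 mM GSH, 0.5% DMSO final. PGH2 (15 μM) reacted 1 min, stopped with stannous chloride. PGE2 quantified by HTRF, IC50 from nonlinear regression of percent inhibition.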

| SMILES | inhibition at 1 µM | inhibition at 10 µM | IC50 |
| --- | --- | --- | --- |
| Cc1cc(C)n(Cc2ccc(-c3nn(-c4cc(CNC(=O)C(C)(C)C)ccc4Cl)c(=O)[nH]3)cc2)n1 [Example-172, N-(4-Chloro-3-(4,5-dihydro-3-(4-((3,5-dimethyl-1H-pyrazol-1-yl)methyl)phenyl)-5-oxo-1,2,4-triazol-1-yl)benzyl)pivalamide] | 91.9% | 99% | > 100 nM |
| COc1cc(-c2nn(-c3c(Cl)cccc3Cl)c(=O)[nH]2)ccc1NC(=O)c1ccc(C(F)(F)F)cc1 [Example-176, N-(4-(1-(2,6-Dichlorophenyl)-4,5-dihydro-5-oxo-1H-1,2,4-triazol-3-yl)-2-methoxyphenyl)-4-(trifluoromethyl)benzamide] | 45.8% | 89.5% |  |
| COc1cc(-c2nn(-c3c(Cl)cccc3Cl)c(=O)[nH]2)ccc1NC(=O)c1cc(F)cc(F)c1 [Example-177, N-(4-(1-(2,6-Dichlorophenyl)-4,5-dihydro-5-oxo-1H-1,2,4-triazol-3-yl)-2-methoxyphenyl)-3,5-difluorobenzamide] | 29.9% | 71.1% |  |
| COc1cc(-c2nn(-c3c(Cl)cccc3Cl)c(=O)[nH]2)ccc1C(=O)Nc1cc(C(F)(F)F)ccc1F [Example-178, 4-(1-(2,6-Dichlorophenyl)-4,5-dihydro-5-oxo-1H-1,2,4-triazol-3-yl)-N-(2-fluoro-5-(trifluoromethyl)phenyl)-2-methoxybenzamide] | 42.7% | 91.5% |  |
| COc1cc(-c2nn(-c3c(Cl)cccc3Cl)c(=O)[nH]2)ccc1C(=O)Nc1ccc(C)cc1Cl [Example-179, N-(2-Chloro-4-methylphenyl)-4-(1-(2,6-dichlorophenyl)-4,5-dihydro-5-oxo-1H-1,2,4-triazol-3-yl)-2-methoxybenzamide] | 50.6% | 95.2% |  |
| CC(C)(C)C(=O)NCc1cnc(C2CC2)c(-c2nn(-c3ccc(C(F)(F)F)cc3)c(=O)[nH]2)c1 [Example-180, N-((6-Cyclopropyl-5-(1-(4-(trifluoromethyl)phenyl)-4,5-dihydro-5-oxo-1H-1,2,4-triazol-3-yl)pyridin-3-yl)methyl)pivalamide] | 72.3% | 92.5% | > 100 nM |
| N#Cc1cnc(C(F)F)c(-c2nn(-c3ccc(C(F)(F)F)cc3)c(=O)[nH]2)c1 [Example-183, 6-(Difluoromethyl)-5-(5-oxo-1-(4-(trifluoromethyl)phenyl)-4,5-dihydro-1H-1,2,4-triazol-3-yl)nicotinonitrile] | 41.5% | 85.5% |  |
| CC(C)(C)C(=O)NCc1cnc(C(F)F)c(-c2nn(-c3ccc(C(F)(F)F)cc3)c(=O)[nH]2)c1 [Example-186] | 96.8% | 98% | < 50 nM |
| CC(C)C(=O)NCc1cnc(C(F)F)c(-c2nn(-c3ccc(C(F)(F)F)cc3)c(=O)[nH]2)c1 [Example-187, N-((6-(Difluoromethyl)-5-(5-oxo-1-(4-(trifluoromethyl)phenyl)-4,5-dihydro-1H-1,2,4-triazol-3-yl)pyridin-3-yl)methyl)isobutyramide] | 98.6% | 97.5% | < 50 nM |
| CC(C)S(=O)(=O)NCc1cnc(C(F)F)c(-c2nn(-c3ccc(C(F)(F)F)cc3)c(=O)[nH]2)c1 [Example-188, N-((6-(Difluoromethyl)-5-(5-oxo-1-(4-(trifluoromethyl)phenyl)-4,5-dihydro-1H-1,2,4-triazol-3-yl)pyridin-3-yl)methyl)propane-2-sulfonamide] | 89.5% | 99.3% | 50 to 100 nM |
| O=C(NCc1cnc(C(F)F)c(-c2nn(-c3ccc(C(F)(F)F)cc3)c(=O)[nH]2)c1)C1CCC1 [Example-189, N-((6-(Difluoromethyl)-5-(5-oxo-1-(4-(trifluoromethyl)phenyl)-4,5-dihydro-1H-1,2,4-triazol-3-yl)pyridin-3-yl)methyl)cyclobutanecarboxamide] | 96.2% | 98.5% | < 50 nM |
| O=C(NCc1ccc(Cl)c(-n2nc(-c3ccc(C#CC4CC4)cc3)[nH]c2=O)c1)C(F)(F)F [Example-190, N-(4-Chloro-3-(3-(4-(cyclopropylethynyl)phenyl)-5-oxo-4,5-dihydro-1H-1,2,4-triazol-1-yl)benzyl)-2,2,2-trifluoroacetamide] | 100% | 100% | < 50 nM |
| CC(C)(CO)C(=O)NCc1ccc(Cl)c(-n2nc(-c3ccc(C#CC4CC4)cc3)[nH]c2=O)c1 [Example-191, N-(4-Chloro-3-(3-(4-(cyclopropylethynyl)phenyl)-5-oxo-4,5-dihydro-1H-1,2,4-triazol-1-yl)benzyl)-3-hydroxy-2,2-dimethylpropanamide] | 93.5% | 100% | > 100 nM |
| CC(C)(CF)C(=O)NCc1cnc(C(F)F)c(-c2nn(-c3ccc(C(F)(F)F)cc3)c(=O)[nH]2)c1 [Example-192, 3-Fluoro-N-((6-(difluoromethyl)-5-(1-(4-(trifluoromethyl)phenyl)-4,5-dihydro-5-oxo-1H-1,2,4-triazol-3-yl)pyridin-3-yl)methyl)-2,2-dimethylpropanamide] | 99.3% | 99.3% | < 50 nM |

Next, values leading:

| inhibition at 1 µM | inhibition at 10 µM | IC50 | SMILES |
| --- | --- | --- | --- |
| 99.8% | 98.9% | < 50 nM | Cc1ccc(CNC(=O)C(C)C)c(C)c1-c1nn(-c2ccc(C#CC(C)(C)C)c(F)c2)c(=O)[nH]1 [Example-170, N-(3-(1-(3-Fluoro-4-(3,3-dimethylbut-1-ynyl)phenyl)-4,5-dihydro-5-oxo-1H-1,2,4-triazol-3-yl)-2,4-dimethylbenzyl)isobutyramide] |
| 95.2% | 99.6% | < 50 nM | COc1cc(-c2nn(-c3c(Cl)cccc3Cl)c(=O)[nH]2)ccc1C#Cc1cc(Cl)ccc1Cl [Example-171, 2-(2,6-Dichlorophenyl)-5-(4-(2-(2,5-dichlorophenyl)ethynyl)-3-methoxyphenyl)-2H-1,2,4-triazol-3 (4H)-one] |
| 96.8% | 99% | < 50 nM | CC(C)(C)C(=O)NCc1ccc(Cl)c(-c2nn(-c3ccc(C(F)(F)F)c(F)c3)c(=O)[nH]2)c1F [Example-173, N-(4-Chloro-2-fluoro-3-(1-(3-fluoro-4-(trifluoromethyl)phenyl)-4,5-dihydro-5-oxo-1H-1,2,4-triazol-3-yl)benzyl)pivalamide] |
| 99.9% | 100% | < 50 nM | CC(C)(C)C(=O)NCc1ccc(Cl)c(-c2nn(-c3ccc(Cl)c(C(F)(F)F)c3)c(=O)[nH]2)c1F [Example-174, N-(4-Chloro-3-(1-(4-chloro-3-(trifluoromethyl)phenyl)-4,5-dihydro-5-oxo-1H-1,2,4-triazol-3-yl)-2-fluorobenzyl)pivalamide] |
| 99.4% | 99.4% | < 50 nM | CC(C)(CF)C(=O)NCc1ccc(Cl)c(-c2nn(-c3ccc(C(F)(F)F)cc3)c(=O)[nH]2)c1 [Example-175, N-(4-Chloro-3-(1-(4-(trifluoromethyl)phenyl)-4,5-dihydro-5-oxo-1H-1,2,4-triazol-3-yl)benzyl)-3-fluoro-2,2-dimethylpropanamide] |
| 88.2% | 94.3% | < 50 nM | CC(C)(C)C(=O)NCc1ccc(Cl)c(-c2nn(-c3ccc(C#CC4CC4)cc3F)c(=O)[nH]2)c1 [Example-181, N-(4-Chloro-3-(1-(4-(2-cyclopropylethynyl)-2-fluorophenyl)-4,5-dihydro-5-oxo-1H-1,2,4-triazol-3-yl)benzyl)pivalamide] |
| 92.9% | 94% | < 50 nM | CC(C)(C)S(=O)(=O)NCc1ccc(Cl)c(-c2nn(-c3ccc(C(F)(F)F)cc3)c(=O)[nH]2)c1 [Example-182, N-(4-Chloro-3-(5-oxo-1-(4-(trifluoromethyl)phenyl)-4,5-dihydro-1H-1,2,4-triazol-3-yl)benzyl)-2-methylpropane-2-sulfonamide] |
| 98.6% | 94.3% | < 50 nM | O=C(NCc1ccc(Cl)c(-c2nn(-c3ccc(C(F)(F)F)cc3)c(=O)[nH]2)c1)C1CCC1 [Example-184, N-(4-Chloro-3-(5-oxo-1-(4-(trifluoromethyl)phenyl)-4,5-dihydro-1H-1,2,4-triazol-3-yl)benzyl)cyclobutanecarboxamide] |
| 96.1% | 98.3% | < 50 nM | O=C(NCc1ccc(Cl)c(-c2nn(-c3ccc(C(F)(F)F)cc3)c(=O)[nH]2)c1)C1CCCC1 [Example-185, N-(4-Chloro-3-(5-oxo-1-(4-(trifluoromethyl)phenyl)-4,5-dihydro-1H-1,2,4-triazol-3-yl)benzyl)cyclopentanecarboxamide] |
